# Patent publication US20240109930A1, “TRIAZOLYL-METHYL SUBSTITUTED ALPHA-D-GALACTOPYRANOSIDE DERIVATIVES” (Idorsia Pharmaceuticals Ltd, priority 2021, published 2024)
# Legend:
# human Gal-3 (hGal-3) = human Gal-3 (hGal-3) (Homo sapiens (Human), UniProt P17931); experiment: Competitive binding assay: biotinylated hGal-3 binding to microplate-adsorbed asialofetuin (ASF); conditions: IC50 values from several measurements given as geomean
# How it was run: (§1)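 Biotinylated hGal-3 or hGal-1 (preferably cysteine-free Cys→Ser mutant), 300–1000 ng/mL, competes with compound for ASF-coated wells for 3 h at 4 °C. Bound lectin detected with streptavidin-peroxidase (80 ng/mL, 1 h, 4 °C) and ABTS by absorbance; IC50 reported as geomean of several runs.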
# human Gal-1 (hGal-1) = human Gal-1 (hGal-1) (Homo sapiens, UniProt P09382, C131S/C17S/C43S/C61S/C89S); experiment: Competitive binding assay: biotinylated hGal-1 binding to microplate-adsorbed asialofetuin (ASF); conditions: IC50 values from several measurements given as geomean
# How it was run: as §1
# Chain of human Gal-3 (hGal-3) (P17931 whole entry): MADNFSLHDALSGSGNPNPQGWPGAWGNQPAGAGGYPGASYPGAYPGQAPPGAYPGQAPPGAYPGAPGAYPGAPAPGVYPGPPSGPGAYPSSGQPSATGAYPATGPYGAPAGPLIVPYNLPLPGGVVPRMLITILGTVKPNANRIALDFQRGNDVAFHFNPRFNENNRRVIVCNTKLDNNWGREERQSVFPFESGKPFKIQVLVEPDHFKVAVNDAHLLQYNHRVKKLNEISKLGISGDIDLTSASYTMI
IC50 (human Gal-3 (hGal-3)),IC50 (human Gal-1 (hGal-1)),SMILES
0.04 µM,2 µM,"CO[C@@H]1[C@@H](n2cc(-c3ccc(Cl)c(F)c3F)nn2)[C@@H](O)[C@@H](CO)O[C@@H]1Cc1cn(C2CCC2(F)F)nn1 (single isomer, unassigned) [Example 2.1.63.B]"
0.5 µM,28.1 µM,CO[C@@H]1[C@@H](n2cc(-c3ccc(Cl)c(F)c3F)nn2)[C@@H](O)[C@@H](CO)O[C@@H]1Cc1cn(C2CC(C(F)(F)F)(C(F)(F)F)C2)nn1 [Ex 2.1.57.]
0.08 µM,7.71 µM,CO[C@@H]1[C@@H](n2cc(-c3ccc(C)c(F)c3F)nn2)[C@@H](O)[C@@H](CO)O[C@@H]1Cn1cc(C2(O)CC2)nn1 [Ex 1.2.36.]
0.01 µM,0.1 µM,"CO[C@@H]1[C@@H](n2cc(-c3ccc(Cl)c(F)c3F)nn2)[C@@H](O)[C@@H](CO)O[C@@H]1Cc1cn(C2CCOCC2(F)F)nn1 (single isomer, unassigned) [Example 2.1.89.A]"
0.02 µM,0.69 µM,CO[C@@H]1[C@@H](n2cc(-c3ccc(Cl)c(F)c3F)nn2)[C@@H](O)[C@@H](CO)O[C@@H]1Cc1cn(C2(C)CCC2)nn1 [Ex 2.1.13.]
0.05 µM,3.69 µM,CO[C@@H]1[C@@H](n2cc(-c3ccc(C)c(F)c3F)nn2)[C@@H](O)[C@@H](CO)O[C@@H]1Cc1cn(C2CC3(COC3)C2)nn1 [Ex 1.1.16.]
0.06 µM,3.91 µM,CO[C@@H]1[C@@H](n2cc(-c3ccc(Cl)c(F)c3F)nn2)[C@@H](O)[C@@H](CO)O[C@@H]1Cn1cc(C2(O)CCOCC2)nn1 [Ex 2.2.35.]
0.05 µM,0.68 µM,CO[C@@H]1[C@@H](n2cc(-c3ccc(Cl)c(F)c3F)nn2)[C@@H](O)[C@@H](CO)O[C@@H]1Cc1cn(C2(CCO)COC2)nn1 [Ex 2.1.22.]
0.04 µM,1.46 µM,CO[C@@H]1[C@@H](n2cc(-c3ccc(Br)c(F)c3F)nn2)[C@@H](O)[C@@H](CO)O[C@@H]1Cc1cn(C2(C)COC2)nn1 [Ex 4.1.6.]
0.07 µM,13.1 µM,COC1=C(N2CC(c3ccc(Cl)c(F)c3F)NN2)C(O)=C(CO)O[C@@H]1Cn1cc(C23CCC(NC(=O)OC(C)(C)C)(CC2)CC3)nn1 (stereo partly drawn) [Ex 2.2.37.]
0.12 µM,1.11 µM,CO[C@@H]1[C@@H](n2cc(-c3ccc(F)c(F)c3F)nn2)[C@@H](O)[C@@H](CO)O[C@@H]1Cc1cn(C2CC3(COC3)C2)nn1 [Ex 3.1.16.]
0.04 µM,2.97 µM,CO[C@@H]1[C@@H](n2cc(-c3ccc(C)c(F)c3F)nn2)[C@@H](O)[C@@H](CO)O[C@@H]1Cn1cc(C2(C)COC2)nn1 [Ex 1.2.6.]
0.05 µM,3.25 µM,CO[C@@H]1[C@@H](n2cc(-c3ccc(Cl)c(F)c3F)nn2)[C@@H](O)[C@@H](CO)O[C@@H]1Cc1cn(C23CC(C2)C3)nn1 [Ex 2.1.12.]
0.05 µM,0.37 µM,CO[C@@H]1[C@@H](n2cc(-c3ccc(F)c(F)c3F)nn2)[C@@H](O)[C@@H](CO)O[C@@H]1Cc1cn(C2CCC23CCC3)nn1 (stereo partly drawn) [Ex 3.1.82.]
0.06 µM,1.36 µM,"CO[C@@H]1[C@@H](n2cc(-c3ccc(Br)c(F)c3F)nn2)[C@@H](O)[C@@H](CO)O[C@@H]1Cc1cn(C23CC(C)(C2)C3)nn1 [Ex 4.1.14., (2R,3R,4S,5R,6R)-4-(4-(4-bromo-2,3-difluorophenyl)-1H-1,2,3-triazol-1-yl)-2-(hydroxymethyl)-5-methoxy-6-((1-(3-methylbicyclo[1.1.1]pentan-1-yl)-1H-1,2,3-triazol-4-yl)methyl)tetrahydro-2H-pyran-3-ol]"
0.05 µM,3.4 µM,CO[C@@H]1[C@@H](n2cc(-c3ccc(Cl)c(F)c3F)nn2)[C@@H](O)[C@@H](CO)O[C@@H]1Cn1cc(C23CC(C2)C3)nn1 [Ex 2.2.12.]
0.07 µM,5.12 µM,CO[C@@H]1[C@@H](n2cc(-c3ccc(Cl)c(F)c3F)nn2)[C@@H](O)[C@@H](CO)O[C@@H]1Cn1cc(C(C)(C)O)nn1 [Ex 2.2.34.]
0.03 µM,1.6 µM,CO[C@@H]1[C@@H](n2cc(-c3ccc(C#N)c(F)c3F)nn2)[C@@H](O)[C@@H](CO)O[C@@H]1Cc1cn([C@H]2CCOC[C@@H]2F)nn1 [Ex 5.1.66.CD]

IC50 (human Gal-3 (hGal-3)),IC50 (human Gal-1 (hGal-1)),SMILES
0.16 µM,8.8 µM,CO[C@@H]1[C@@H](n2cc(-c3ccc(Cl)c(F)c3F)nn2)[C@@H](O)[C@@H](CO)O[C@@H]1Cn1cc(C2CC(F)(F)C2)nn1 [Ex 2.2.83.]
0.03 µM,2.65 µM,CCC1(c2cn(C[C@H]3O[C@H](CO)[C@H](O)[C@H](n4cc(-c5ccc(C)c(F)c5F)nn4)[C@H]3OC)nn2)COC1 [Ex 1.2.38.]
0.06 µM,11 µM,CO[C@@H]1[C@@H](n2cc(-c3ccc(C)c(F)c3F)nn2)[C@@H](O)[C@@H](CO)O[C@@H]1Cc1cn(C23CCC(N)(CC2)CC3)nn1 [Ex 1.2.39.]
0.1 µM,0.65 µM,CO[C@@H]1[C@@H](n2cc(-c3ccc(F)c(F)c3F)nn2)[C@@H](O)[C@@H](CO)O[C@@H]1Cn1cc(C2(CO)CC2)nn1 [Ex 3.2.4.]
0.04 µM,3.95 µM,CO[C@@H]1[C@@H](n2cc(-c3ccc(C)c(F)c3F)nn2)[C@@H](O)[C@@H](CO)O[C@@H]1Cc1cn(C23CC(F)(C2)C3)nn1 [Ex 1.1.25.]
0.13 µM,9.17 µM,CO[C@@H]1[C@@H](n2cc(-c3ccc(Cl)c(F)c3F)nn2)[C@@H](O)[C@@H](CO)O[C@@H]1Cc1cn(C2CC(C(F)(F)F)C2)nn1 (stereo partly drawn) [Ex 2.1.41.]
0.05 µM,2.57 µM,CO[C@@H]1[C@@H](n2cc(-c3ccc(C)c(F)c3F)nn2)[C@@H](O)[C@@H](CO)O[C@@H]1Cc1cn(C2(CO)CCCC2)nn1 [Ex 1.1.5.]
0.02 µM,0.95 µM,"CO[C@@H]1[C@@H](n2cc(-c3ccc(Cl)c(F)c3F)nn2)[C@@H](O)[C@@H](CO)O[C@@H]1Cc1cn([C@@H]2CCOC[C@H]2F)nn1 [Example 2.1.66.C, (2R,3R,4S,5R,6R)-4-(4-(4-chloro-2,3-difluorophenyl)-1H-1,2,3-triazol-1-yl)-6-((1-((3S,4R)-3-fluorotetrahydro-2H-pyran-4-yl)-1H-1,2,3-triazol-4-yl)methyl)-2-(hydroxymethyl)-5-methoxytetrahydro-2H-pyran-3-ol]"
0.02 µM,0.13 µM,CO[C@@H]1[C@@H](n2cc(-c3ccc(F)c(F)c3F)nn2)[C@@H](O)[C@@H](CO)O[C@@H]1Cc1cn(C2(C(F)F)COC2)nn1 [Ex 3.1.53.]
0.05 µM,0.46 µM,CO[C@@H]1[C@@H](n2cc(-c3ccc(F)c(F)c3F)nn2)[C@@H](O)[C@@H](CO)O[C@@H]1Cc1cn(C2(C)CC(F)(F)C2)nn1 [Ex 3.1.15.]
0.09 µM,2.08 µM,CO[C@@H]1[C@@H](n2cc(-c3ccc(F)c(F)c3F)nn2)[C@@H](O)[C@@H](CO)O[C@@H]1Cc1cn(C23CC(C(F)(F)F)(C2)C3)nn1 [Ex 3.1.24.]
0.05 µM,2.26 µM,CCC1(c2cn(C[C@H]3O[C@H](CO)[C@H](O)[C@H](n4cc(-c5ccc(Br)c(F)c5F)nn4)[C@H]3OC)nn2)COC1 [Ex 4.2.38.]
0.07 µM,1.14 µM,CO[C@@H]1[C@@H](n2cc(-c3ccc(Br)c(F)c3F)nn2)[C@@H](O)[C@@H](CO)O[C@@H]1Cc1cn(C2(CCO)COC2)nn1 [Ex 4.1.22.]
0.03 µM,1.2 µM,"CO[C@@H]1[C@@H](n2cc(-c3ccc(Cl)c(F)c3F)nn2)[C@@H](O)[C@@H](CO)O[C@@H]1Cc1cn(C23CCOC(C)(C2)C3)nn1 [Ex 2.1.62., (2R,3R,4S,5R,6R)-4-(4-(4-chloro-2,3-difluorophenyl)-1H-1,2,3-triazol-1-yl)-2-(hydroxymethyl)-5-methoxy-6-((1-(1-methyl-2-oxabicyclo[3.1.1]heptan-5-yl)-1H-1,2,3-triazol-4-yl)methyl)tetrahydro-2H-pyran-3-ol]"
0.06 µM,0.26 µM,CO[C@@H]1[C@@H](n2cc(-c3ccc(F)c(F)c3F)nn2)[C@@H](O)[C@@H](CO)O[C@@H]1Cc1cn([C@]2(C)C[C@H](O)C2)nn1 [Ex 3.1.19.]
0.03 µM,2.03 µM,"CO[C@@H]1[C@@H](n2cc(-c3ccc(Br)c(F)c3F)nn2)[C@@H](O)[C@@H](CO)O[C@@H]1Cc1cn(C23COC(C)(C2)C3)nn1 [Ex 4.1.59., (2R,3R,4S,5R,6R)-4-(4-(4-bromo-2,3-difluorophenyl)-1H-1,2,3-triazol-1-yl)-2-(hydroxymethyl)-5-methoxy-6-((1-(1-methyl-2-oxabicyclo[2.1.1]hexan-4-yl)-1H-1,2,3-triazol-4-yl)methyl)tetrahydro-2H-pyran-3-ol]"
0.1 µM,5.49 µM,CO[C@@H]1[C@@H](n2cc(-c3ccc(Br)c(F)c3F)nn2)[C@@H](O)[C@@H](CO)O[C@@H]1Cn1cc(C(C)(C)O)nn1 [Ex 4.2.34.]
0.02 µM,0.67 µM,CO[C@@H]1[C@@H](n2cc(-c3ccc(C)c(F)c3F)nn2)[C@@H](O)[C@@H](CO)O[C@@H]1Cc1cn([C@]2(C)C[C@H](O)C2)nn1 [Ex 1.1.19.]
